Test results reported in the supplement of paper PMC7017272.
± gives the standard deviation of the averaged measurements.

How the values were obtained:
[1] = tested on: UT-SCC-42A; assay: relative IC50 (midpoint of the fitted curve; maximal inhibition may be below 50%); higher = less potent; conditions: treatment time: 3 days
Outline: (§1)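 Viability was read with CellTiter-Glo 2.0 luminescence and scaled against vehicle (0.1% DMSO) and cell-killing control wells. The assay used HPV-negative HNSCC cell lines at 500 cells/well in 384-well plates, grown on plastic, on Matrigel or Myogel coatings (500 µg/mL), or embedded in Matrigel or Myogel plus rat collagen I, and treated for 3 days at five 10-fold concentrations. IC50, maximal inhibition and drug sensitivity score were derived from percent-inhibition dose–response curves fitted in the FIMM pipeline.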

[2] = tested on: UT-SCC-44; assay: as above; conditions: treatment time: 3 days
Outline: as §1

[3] = tested on: UT-SCC-73; assay: as above; conditions: treatment time: 3 days
Outline: as §1

[4] = tested on: UT-SCC-42B; assay: as above; conditions: culture condition: on top of Myogel; treatment time: 3 days
Outline: as §1

[5] = tested on: UT-SCC-14; assay: as above; conditions: treatment time: 3 days
Outline: as §1

[6] = tested on: UT-SCC-24A; assay: maximal % inhibition of viability relative to DMSO; higher = stronger effect; conditions: treatment time: 3 days
Protocol: (§2)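 HNSCC cell lines (500 cells/well, 384-well) were cultured on plastic, on top of (2D) or embedded (3D) in Matrigel or human leiomyoma matrix Myogel (500 ug/mL; Myogel 3D mixed with rat collagen I). Cells were treated for 3 days with 5 ten-fold concentrations of each drug, and viability was read by CellTiter-Glo. Viability was normalised to DMSO (0% inhibition) and 100 uM benzethonium chloride (100% inhibition) controls and fitted with the FIMM DSRT pipeline to give IC50 (nM), maximal % inhibition and the drug sensitivity score (DSS). Suffixes _1/_2/_3 on drug names are replicates.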

[7] = tested on: UT-SCC-24A; assay: relative IC50 (midpoint of the fitted curve; maximal inhibition may be below 50%); higher = less potent; conditions: treatment time: 3 days
Protocol: as §2

[8] = tested on: UT-SCC-28; assay: drug sensitivity score (DSS); higher = more sensitive; extreme values may be limits of the assay; conditions: treatment time: 3 days
Outline: as §1

[9] = tested on: UT-SCC-8; assay: as above; conditions: treatment time: 3 days
Outline: as §1

[10] = tested on: UT-SCC-42A; assay: as above; conditions: treatment time: 3 days
Outline: as §1

[11] = tested on: UT-SCC-44; assay: as above; conditions: treatment time: 3 days
Outline: as §1

[12] = tested on: UT-SCC-73; assay: as above; conditions: treatment time: 3 days
Outline: as §1

[13] = tested on: UT-SCC-42B; assay: as above; conditions: treatment time: 3 days
Outline: as §1

[14] = tested on: UT-SCC-24B; assay: as above; conditions: treatment time: 3 days
Outline: as §1

[15] = tested on: UT-SCC-40; assay: as above; conditions: treatment time: 3 days
Outline: as §1

[16] = tested on: UT-SCC-14; assay: as above; conditions: treatment time: 3 days
Outline: as §1

[17] = tested on: UT-SCC-106A; assay: as above; conditions: treatment time: 3 days
Outline: as §1

[18] = tested on: UT-SCC-81; assay: as above; conditions: treatment time: 3 days
Outline: as §1

[19] = culture condition: embedded in Myogel + collagen I
[20] = culture condition: on top of Matrigel
[21] = culture condition: on top of Myogel
[22] = culture condition: plastic 2D (no matrix)
[23] = culture condition: embedded in Matrigel

For `CO[C@H]1C[C@@H]2CC[C@@H](C)[C@@](O)(O2)C(=O)C(=O)N2CCCC[C@H]2C(=O)O[C@H]([C@H](C)C[C@@H]2CC[C@@H](O)[C@H](OC)C2)CC(=O)[C@H](C)/C=C(\C)[C@@H](O)[C@@H](OC)C(=O)[C@H](C)C[C@H](C)/C=C/C=C/C=C/1C` [Sirolimus], the “relative IC50” value [1, 19] was 3.22 nM, the “relative IC50” value [1, 20] was 2.37 nM and the “relative IC50” value [1, 21] was 2.33 nM. The “relative IC50” value [1, 22] was 2.24 nM, the “relative IC50” value [2, 19] was 2.41 nM and the “relative IC50” value [2, 20] was 1.79 nM. The “relative IC50” value [2, 22] was 1.88 nM, the “relative IC50” value [3, 19] was 26.3 nM and the “relative IC50” value [3, 21] was 12 nM. The “relative IC50” value [3, 22] was 31.8 nM, the “relative IC50” value [4] was > 98.9 nM and the “relative IC50” value [5, 23] was 0.687 nM. For the same molecule, the “relative IC50” value [5, 19] was 0.9 nM, the “relative IC50” value [5, 20] was 1.24 nM and the “relative IC50” value [5, 21] was 1.06 nM. For the same molecule, the “maximal % inhibition of viability” value [6, 23] was 69 ± 4.9%, the “maximal % inhibition of viability” value [6, 19] was 77.4 ± 8.1% and the “maximal % inhibition of viability” value [6, 20] was 71.57 ± 0.55%. For the same molecule, the “maximal % inhibition of viability” value [6, 21] was 65.5 ± 2.4%, the “maximal % inhibition of viability” value [6, 22] was 67.9 ± 2.4% and the “relative IC50” value [7, 19] was 1.86 nM. The “relative IC50” value [7, 21] was 2.01 nM, the drug sensitivity score [8, 23] was 7.27 ± 5.1 DSS and the drug sensitivity score [8, 19] was 7.53 ± 7 DSS. For the same molecule, the drug sensitivity score [8, 20] was 9.87 ± 0.93 DSS, the drug sensitivity score [8, 22] was 6.97 ± 1.6 DSS and the drug sensitivity score [9, 23] was 12.2 ± 11 DSS. The drug sensitivity score [9, 19] was 3.87 ± 6.7 DSS, the drug sensitivity score [9, 20] was 11.5 ± 10 DSS and the drug sensitivity score [9, 21] was 11.3 ± 9.8 DSS. For the same molecule, the drug sensitivity score [9, 22] was 12.4 ± 11 DSS, the drug sensitivity score [10, 23] was 10.6 ± 4.6 DSS and the drug sensitivity score [10, 19] was 9.5 ± 0.92 DSS. For the same molecule, the drug sensitivity score [10, 20] was 12.9 ± 1.6 DSS, the drug sensitivity score [10, 21] was 12.3 ± 1.6 DSS and the drug sensitivity score [10, 22] was 11.2 ± 0.82 DSS. It also gave a drug sensitivity score [11, 23] of 6.6 ± 5.8 DSS, a drug sensitivity score [11, 19] of 13.9 ± 2.7 DSS and a drug sensitivity score [11, 20] of 13.1 ± 0.99 DSS. The drug sensitivity score [11, 21] was 14.2 ± 3.2 DSS, the drug sensitivity score [11, 22] was 15 ± 1.4 DSS and the drug sensitivity score [12, 23] was 12.4 ± 4.3 DSS. For the same molecule, the drug sensitivity score [12, 19] was 8.07 ± 1.6 DSS, the drug sensitivity score [12, 20] was 11.9 ± 5.2 DSS and the drug sensitivity score [12, 21] was 10.1 ± 0.81 DSS. It also gave a drug sensitivity score [12, 22] of 7.43 ± 0.31 DSS, a drug sensitivity score [13, 23] of 3.47 ± 6 DSS and a drug sensitivity score [13, 20] of 3.07 ± 5.3 DSS. It also gave a drug sensitivity score [13, 21] of 0 DSS, a drug sensitivity score [13, 22] of 3.8 ± 3.4 DSS and a drug sensitivity score [14, 23] of 22.9 ± 0.36 DSS. The drug sensitivity score [14, 19] was 19.5 ± 4 DSS, the drug sensitivity score [14, 20] was 18.9 ± 4.8 DSS and the drug sensitivity score [14, 21] was 17.2 ± 3.4 DSS. It also gave a drug sensitivity score [14, 22] of 16.8 ± 4.1 DSS, a drug sensitivity score [15, 23] of 5.4 ± 4.9 DSS and a drug sensitivity score [15, 19] of 4.83 ± 4.2 DSS. For the same molecule, the drug sensitivity score [15, 20] was 3.2 ± 5.5 DSS, the drug sensitivity score [15, 21] was 4.67 ± 4.1 DSS and the drug sensitivity score [15, 22] was 0 DSS. The drug sensitivity score [16, 23] was 19.3 ± 2.1 DSS, the drug sensitivity score [16, 19] was 15.4 ± 2.7 DSS and the drug sensitivity score [16, 20] was 15.6 ± 3.3 DSS. The drug sensitivity score [16, 21] was 15.4 ± 3.1 DSS, the drug sensitivity score [16, 22] was 15.1 ± 3.8 DSS and the drug sensitivity score [17, 23] was 4.7 ± 4.3 DSS. It also gave a drug sensitivity score [17, 19] of 3.73 ± 3.3 DSS, a drug sensitivity score [17, 20] of 8.67 ± 3.8 DSS and a drug sensitivity score [17, 21] of 7.03 ± 3.8 DSS. For the same molecule, the drug sensitivity score [17, 22] was 10 ± 3.3 DSS, the drug sensitivity score [18, 23] was 14.2 ± 4.6 DSS and the drug sensitivity score [18, 19] was 14.9 ± 2.7 DSS. For the same molecule, the drug sensitivity score [18, 20] was 17.1 ± 1.8 DSS, the drug sensitivity score [18, 21] was 16.6 ± 2.1 DSS and the drug sensitivity score [18, 22] was 17.8 ± 1.2 DSS.
